Read-outs that look alike come from different tables or passages of the source.
Columns and labels:
[1] = tested on: H3K9AC (HT1080 cells); test: H3K9AC Sandwich ELISA Assay in HT1080 cells (KAT2A primary cell-based screening assay); design: species or system Human
Protocol: Human fibrosarcoma cell line HT1080 was obtained from American Type Culture Collection (ATCC), Manassas, VA USA, Cat. HT-1080 (ATCC® CCL-121™). Cells were cultured in MEM (Thermo Fisher Scientific/Gibco Life Technologies Cat. #11-095-080) plus 10% (v/v) FBS (Thermo Fisher Scientific/Gibco Life Technologies Cat. #26140-079) and 1% Penicillin-Streptomycin (Thermo Fisher Scientific/Gibco Life Technologies Cat. #15070063) at 37° C. in 5% CO2.
HT1080 cells were trypsinized, cell viability count performed, and cells suspended in complete media at 100,000 cells/ml. Cells were seeded (100 μl/well) into Greiner Bio-One CELLSTAR 96-well polystyrene flat bottom cell culture microplate (Thermo Fisher Scientific Cat. #07-000-162) at a density of 10,000 cells/well. Cells were incubated for 16 hours at 37° C. at 5% CO2. Compound dilution plates were prepared in 96-well, clear U-bottom, polypropylene plates (Corning 3365) in 100% DMSO at 10 mM stock concentration in duplicate, using 10-point serial dilution (1:3). Compounds were diluted to 1:200 in growth medium and 25 μl from intermediate compound plates were added to each well of the cell plates using a Beckman FX liquid handling system such that the highest compound concentration tested was 10 μM final, with a 0.1% final DMSO concentration in the total volume of 125 μl. Plates were incubated for 24 hours at 37° C. and 5% CO2. Plates were centrifuged at 2500 rpm for 5 minutes and medium was removed. 100 μL 0.4N HCL (Thermo Fisher Scientific Cat #SA56-1) was added to each well and plates were shaken for 60 minutes at 4C to lyse cells. 38ul 0.4N Sodium phosphase dibasic pH12.5 (Thermo Fisher Scientific Cat #S375-212) containing 2 mM Sodium Butyrate (Millipore TR1008G) and 3 mM Phenylmethanesulfonyl-fluoride (Sigma 93482) was added to each well to neutralize lysates.
Cell lysate plates were mixed for 5 minutes at room temperature on shaker and immediately frozen at −80C overnight. Cell lysates were thawed and 50 μL/well was transferred to ELISA plates (Total Histone H3 mouse (Cell Signaling Technology Cat #14269) mAb-coated Corning 1×8 strip-well, white, 96-well plates (Corning 2485)). After 2 hours room temperature incubation, plates were washed six times with PBS/0.05% Tween Wash Buffer using a BioTek plate washer. 50 μL of Histone H3K9AC rabbit detection mAb (Cell Signaling Technology Cat #9649S) diluted 1:1000 in blocking buffer (Thermo Fisher Scientific Cat #37542) was added to each well and incubated for 2 hours at room temperature. After washing, 50 μL anti-rabbit IgG, HRP-Linked antibody (Cell Signaling Technology Cat #7074) diluted 1:1000 in blocking buffer was added to each well and incubated for 60 minutes at room temperature. Following incubation, plates were washed as described above. 50 μL of luminescent GLO substrate reagent (R&D System Cat #DY993) was added to each well and incubated for 10 minutes at room temperature. Plates were read on the PHERAstar plate reader using the 96-well with Luminescent reading mode. IC50 values were calculated using a four-parameter fit with GraphPad Prism version 9.5.1 or in-house modified IDBS ActivityBase data analyzing package.

[2] = biological target: KAT2A (Homo sapiens (Human), UniProt Q92830); test: KAT2A acetyltransferase biochemical assay (RapidFire mass spectrometry, AcCoA to CoA)
[3] = Homo sapiens, HT-1080, H3K9AC sandwich ELISA
[4] = read-out: KAT2A Ki at 1 μM AcCoA, 5 μM H3 1-21 peptide, 0.5 nM KAT2A, 90-minute reaction

KAT2A, sequence (Q92830 whole entry): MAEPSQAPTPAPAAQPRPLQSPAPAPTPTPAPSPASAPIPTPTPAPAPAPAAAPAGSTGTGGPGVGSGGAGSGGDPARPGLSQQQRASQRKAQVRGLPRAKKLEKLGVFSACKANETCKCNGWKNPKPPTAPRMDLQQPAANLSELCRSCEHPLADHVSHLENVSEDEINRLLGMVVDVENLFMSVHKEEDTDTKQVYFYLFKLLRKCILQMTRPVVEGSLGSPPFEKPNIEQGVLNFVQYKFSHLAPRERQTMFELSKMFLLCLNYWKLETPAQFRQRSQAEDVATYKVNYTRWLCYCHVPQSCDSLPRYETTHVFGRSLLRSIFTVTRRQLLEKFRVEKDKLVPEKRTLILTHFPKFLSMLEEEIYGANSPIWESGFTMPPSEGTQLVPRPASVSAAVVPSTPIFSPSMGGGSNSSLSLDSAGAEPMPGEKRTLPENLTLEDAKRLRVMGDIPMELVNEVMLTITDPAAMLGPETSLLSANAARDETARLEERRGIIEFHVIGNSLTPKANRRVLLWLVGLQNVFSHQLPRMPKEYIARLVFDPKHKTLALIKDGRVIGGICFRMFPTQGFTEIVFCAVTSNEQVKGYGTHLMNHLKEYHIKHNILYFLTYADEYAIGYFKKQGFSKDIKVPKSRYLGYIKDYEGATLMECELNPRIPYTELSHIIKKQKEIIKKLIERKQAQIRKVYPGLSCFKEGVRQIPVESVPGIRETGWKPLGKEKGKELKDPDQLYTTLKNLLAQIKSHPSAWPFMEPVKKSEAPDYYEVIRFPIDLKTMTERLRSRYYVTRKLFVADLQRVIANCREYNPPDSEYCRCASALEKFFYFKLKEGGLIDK

SMILES	IC50 [1, 3]	Ki [2, 4]	IC50 ([1]; H3K9AC sandwich ELISA)	Ki ([2]; KAT2A Ki at 1 μM AcCoA, 5 μM H3 1-21 peptide, 0.5 nM KAT2A, 90-minute reaction)
CC1(S(=O)(=O)NC(=O)Cc2ccc(O[C@@H]3CC[C@@H](NC(=O)[C@@]4(F)CNC5(CCCC5)C4)C3)c(-c3cccc(F)c3C3CCC3)c2)CC1 (single isomer, unassigned) [Example C69]	0.6 nM	0.04 nM	–	–
CCS(=O)(=O)NC(=O)Cc1ccc(O[C@@H]2CC[C@@H](NC(=O)[C@@]3(F)CNC4(CCCC4)C3)C2)c(-c2cccc(F)c2C2CCC2)c1 (single isomer, unassigned) [Example C70]	–	0.04 nM	73.5 nM	–
CCS(=O)(=O)NC(=O)Cc1ccc(O[C@@H]2CC[C@@H](NC(=O)[C@@]3(F)CNC4(CCCC4)C3)C2)c(-c2cccc(F)c2C2CCC2)c1 (single isomer, unassigned) [Example C71]	–	0.01 nM	1 nM	–
CCc1c(F)cccc1-c1cc(CC(=O)NS(=O)(=O)C(C)C)ccc1O[C@@H]1CC[C@@H](NC(=O)[C@@]2(F)CNC3(CCCC3)C2)C1 (single isomer, unassigned) [Example C72]	–	45.4 nM	> 1000 nM	–
CCc1c(F)cccc1-c1cc(CC(=O)NS(=O)(=O)C(C)C)ccc1O[C@@H]1CC[C@@H](NC(=O)[C@@]2(F)CNC3(CCCC3)C2)C1 (single isomer, unassigned) [Example C73]	–	0.05 nM	4.8 nM	–
CC(C)c1ccccc1-c1cc(CC(=O)NS(=O)(=O)C(C)C)ccc1O[C@@H]1CC[C@@H](NC(=O)[C@@]2(F)CNCC(C)(C)C2)C1 (single isomer, unassigned) [Example C74]	–	> 99.9 nM	> 1000 nM	–
CC(C)c1ccccc1-c1cc(CC(=O)NS(=O)(=O)C(C)C)ccc1O[C@@H]1CC[C@@H](NC(=O)[C@@]2(F)CNCC(C)(C)C2)C1 (single isomer, unassigned) [Example C75]	–	0.17 nM	4.5 nM	–
CC(C)S(=O)(=O)NC(=O)Cc1ccc(O[C@@H]2CC[C@@H](NC(=O)[C@@]3(F)CNCC(C)(C)C3)C2)c(-c2cccc(F)c2C2CCC2)c1 (single isomer, unassigned) [Example C76]	–	46 nM	485 nM	–
CC(C)S(=O)(=O)NC(=O)Cc1ccc(O[C@@H]2CC[C@@H](NC(=O)[C@@]3(F)CNCC(C)(C)C3)C2)c(-c2cccc(F)c2C2CCC2)c1 (single isomer, unassigned) [Example C77]	–	0.05 nM	6 nM	–
CC1(C)CNC[C@](F)(C(=O)N[C@@H]2CC[C@@H](Oc3ccc(CC(=O)NS(=O)(=O)C4(C)CC4)cc3-c3cccc(F)c3C3CCC3)C2)C1 (single isomer, unassigned) [Example C78]	–	0.08 nM	> 1000 nM	–
CC1(C)CNC[C@](F)(C(=O)N[C@@H]2CC[C@@H](Oc3ccc(CC(=O)NS(=O)(=O)C4(C)CC4)cc3-c3cccc(F)c3C3CCC3)C2)C1 (single isomer, unassigned) [Example C79]	–	0.06 nM	3.6 nM	–
CC(C)c1ccccc1-c1cc(CC(=O)NS(=O)(=O)C2(C)CC2)ccc1O[C@@H]1CC[C@@H](NC(=O)[C@@]2(F)CNCC(C)(C)C2)C1 (single isomer, unassigned) [Example C80]	–	0.11 nM	2.6 nM	–
CC(C)c1ccccc1-c1cc(CC(=O)NS(=O)(=O)C2(C)CC2)ccc1O[C@@H]1CC[C@@H](NC(=O)[C@@]2(F)CNCC(C)(C)C2)C1 (single isomer, unassigned) [Example C81]	–	31.1 nM	135 nM	–
CCc1c(F)cccc1-c1cc([C@@H](C)C(=O)NS(=O)(=O)C2(C)CC2)ccc1O[C@@H]1CC[C@@H](NC(=O)[C@@]2(F)CNC3(CCC3)C2)C1 (single isomer, unassigned) [Example C82]	–	0.07 nM	8.7 nM	–
CCc1c(F)cccc1-c1cc([C@@H](C)C(=O)NS(=O)(=O)C2(C)CC2)ccc1O[C@@H]1CC[C@@H](NC(=O)[C@@]2(F)CNC3(CCC3)C2)C1 (single isomer, unassigned) [Example C83]	–	0.08 nM	2.4 nM	–
CCc1c(F)cccc1-c1cc([C@@H](C)C(=O)NS(=O)(=O)C2(C)CC2)ccc1O[C@@H]1CC[C@@H](NC(=O)[C@@]2(F)CNC3(CCCC3)C2)C1 (single isomer, unassigned) [Example C85]	–	0.17 nM	6.1 nM	–
CCc1c(F)cccc1-c1cc([C@@H](C)C(=O)NS(=O)(=O)C2(C)CC2)ccc1O[C@@H]1CC[C@@H](NC(=O)[C@@]2(F)CNC3(CCCC3)C2)C1 (single isomer, unassigned) [Example C87]	–	0.07 nM	1.5 nM	–
CCS(=O)(=O)NC(=O)[C@H](C)c1ccc(O[C@@H]2CC[C@@H](NC(=O)[C@@]3(F)CNC4(CCC4)C3)C2)c(-c2ccccc2C(C)C)c1 (single isomer, unassigned) [Example C88]	10.3 nM	0.21 nM	–	–
CCS(=O)(=O)NC(=O)C(C)c1ccc(O[C@@H]2CC[C@@H](NC(=O)[C@@]3(F)CNC4(CCC4)C3)C2)c(-c2ccccc2C(C)C)c1 (single isomer, unassigned) [Example C89]	–	0.16 nM	6.5 nM	–
CCS(=O)(=O)NC(=O)C(C)c1ccc(O[C@@H]2CC[C@@H](NC(=O)[C@@]3(F)CNC4(CCC4)C3)C2)c(-c2cccc(F)c2C2CCC2)c1 (single isomer, unassigned) [Example C90]	3.3 nM	0.05 nM	–	–
CCS(=O)(=O)NC(=O)[C@H](C)c1ccc(O[C@@H]2CC[C@@H](NC(=O)[C@@]3(F)CNC4(CCC4)C3)C2)c(-c2cccc(F)c2C2CCC2)c1 (single isomer, unassigned) [Example C91]	–	0.06 nM	5.4 nM	–
CN1CC2(CCCC2)C[C@@H]1C(=O)N[C@@H]1CC[C@@H](Oc2ccc(C(=O)O)cc2-c2ccccc2C2CCC2)C1 (single isomer, unassigned) [Example D9]	67.2 nM	6.76 nM	–	–
C[C@H](C(=O)NS(C)(=O)=O)c1ccc(OC[C@H]2C[C@H](NC(=O)[C@@H]3CC(C)(C)CN3C)C2)c(-c2cccc(F)c2C2CCC2)c1 (single isomer, unassigned) [Example G3]	20.5 nM	2.15 nM	–	–
C[C@@H](C(=O)NS(C)(=O)=O)c1ccc(OC[C@H]2C[C@H](NC(=O)[C@@H]3CC(C)(C)CN3C)C2)c(-c2cccc(F)c2C2CCC2)c1 (single isomer, unassigned) [Example G4]	30.4 nM	1.3 nM	–	–
C[C@@H](C(=O)O)c1nn(C)cc1-c1ccc(O[C@@H]2CC[C@@H](NC(=O)[C@]3(F)CNC4(CCC4)C3)C2)c(-c2cccc(F)c2C2CCC2)c1 (single isomer, unassigned) [Example J2]	–	–	790 nM	61.6 nM
Cn1cc(-c2ccc(O[C@@H]3CC[C@@H](NC(=O)[C@]4(F)CNC5(CCC5)C4)C3)c(-c3cccc(F)c3C3CCC3)c2)c(C(C)(C)C(=O)O)n1 (single isomer, unassigned) [Example J6]	–	> 1000 nM	746 nM	–
Cn1cc(-c2ccc(O[C@@H]3CC[C@@H](NC(=O)[C@]4(F)CNC5(CCC5)C4)C3)c(-c3cccc(F)c3C3CCC3)c2)c(C(=O)O)n1 (single isomer, unassigned) [Example J9]	–	2.16 nM	4300 nM	–
